Measured values published in paper PMC9090415, “Discovery of small molecule inhibitors of Plasmodium falciparum apicoplast DNA polymerase” (Journal of Enzyme Inhibition and Medicinal Chemistry, 2022).
pIC50: −log10 of the molar value.

Biological target: P. falciparum apicoplast DNA polymerase (Pf-apPOL) (Plasmodium falciparum, UniProt Q8ILY1)
Assay: Fluorescence-based high-throughput DNA polymerase assay (molecular beacon), primary screen and dose-response;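 as to % inhibition ApPOL 90': test concentration in µM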;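 as to % inhibition apPOL 180': test concentration in µM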
Assay type: biochemical
Settings: for DNA Pol: 90 min, 10 µM
In short: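 Single-point screening used 10 µM compound with 20 nM polymerase, 20 nM hairpin substrate and 6 µM dNTPs for 90 min at 25 °C. Confirmatory titrations (2.5–80 µM) followed fluorescence at three times, and IC50 was derived from a fit including a cooperativity term n.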

[1] = DRC-2, 180', concentration 40 (unit not given)
[2] = primary screen value of the 186 hits, unit not given

Sequence of P. falciparum apicoplast DNA polymerase (Pf-apPOL) (Q8ILY1 entry or part of it): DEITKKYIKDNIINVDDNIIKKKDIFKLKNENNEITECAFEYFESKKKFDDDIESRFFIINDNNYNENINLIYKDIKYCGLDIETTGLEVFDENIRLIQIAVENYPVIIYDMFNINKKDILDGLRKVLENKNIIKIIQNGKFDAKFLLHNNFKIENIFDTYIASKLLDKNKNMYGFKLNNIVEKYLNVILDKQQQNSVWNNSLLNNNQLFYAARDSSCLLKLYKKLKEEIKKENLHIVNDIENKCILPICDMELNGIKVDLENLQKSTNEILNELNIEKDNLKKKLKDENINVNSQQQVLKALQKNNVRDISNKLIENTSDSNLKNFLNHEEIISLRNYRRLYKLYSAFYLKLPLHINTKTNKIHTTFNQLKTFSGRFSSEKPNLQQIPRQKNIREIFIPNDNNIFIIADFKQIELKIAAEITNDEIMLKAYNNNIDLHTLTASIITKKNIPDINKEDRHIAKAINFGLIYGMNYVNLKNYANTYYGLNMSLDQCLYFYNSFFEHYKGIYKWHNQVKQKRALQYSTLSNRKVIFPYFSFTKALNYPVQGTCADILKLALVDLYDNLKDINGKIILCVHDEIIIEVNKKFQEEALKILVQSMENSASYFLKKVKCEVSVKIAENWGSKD

## N#Cc1c(C2CCCCC2)nc(Sc2ccc(C(F)(F)F)cc2[N+](=O)[O-])[nH]c1=O [Molecule 20, N#Cc1c(=O)[nH]c(nc1C1CCCCC1)Sc1ccc(cc1N(=O)=O)C(F)(F)F]
'DNA Pol' of the 186 hits list (primary screen result), unit not given
  DNA Pol: 99
DRC-1, concentration 2.5
  % inhibition Apo pol 10': 13.479%
DRC-1, concentration 5
  % inhibition Apo pol 10': 22.3075%
DRC-1, concentration 10
  % inhibition Apo pol 10': 58.5642%
DRC-1, concentration 20
  % inhibition Apo pol 10': 88.1341%
DRC-1, concentration 40
  % inhibition Apo pol 10': 96.8636%
DRC-1, concentration 80
  % inhibition Apo pol 10': 98.9889%
DRC-1, 90', concentration 2.5
  % inhibition Apol 90': 11.5568%
DRC-1, 90', concentration 5
  % inhibition Apol 90': 20.2551%
DRC-1, 90', concentration 10
  % inhibition Apol 90': 55.7655%
DRC-1, 90', concentration 20
  % inhibition Apol 90': 84.5767%
DRC-1, 90', concentration 40
  % inhibition Apol 90': 95.5899%
DRC-1, 90', concentration 80
  % inhibition Apol 90': 98.5408%
DRC-1, 180', concentration 2.5
  % inhibition apPOL 180': 4.639%
DRC-1, 180', concentration 5
  % inhibition apPOL 180': 10.6134%
DRC-1, 180', concentration 10
  % inhibition apPOL 180': 43.2916%
DRC-1, 180', concentration 20
  % inhibition apPOL 180': 78.9137%
DRC-1, 180', concentration 40
  % inhibition apPOL 180': 94.1749%
DRC-1, 180', concentration 80
  % inhibition apPOL 180': 98.1002%
DRC-2, 5', concentration 20 (unit not given)
  % inhibition Apo pol 5': 55%
DRC-2, 40', concentration 10 (unit not given)
  % inhibition Apol 40': 55%
DRC-2, 90', concentration 40 (unit not given)
  % inhibition ApPOL 90': 77%
[1]
  % inhibition apPOL 180': 77%
DRC-2, 5', concentration 2.5
  % inhibition Apo pol 5': 3.66%
DRC-2, 5', concentration 5
  % inhibition Apo pol 5': 11%
DRC-2, 5', concentration 10
  % inhibition Apo pol 5': 43%
DRC-2, 5', concentration 20
  % inhibition Apo pol 5': 55%
DRC-2, 5', concentration 40
  % inhibition Apo pol 5': 60%
DRC-2, 5', concentration 80
  % inhibition Apo pol 5': 61%
DRC-2, 40', concentration 2.5
  % inhibition Apol 40': 6.56%
DRC-2, 40', concentration 5
  % inhibition Apol 40': 16%
DRC-2, 40', concentration 10
  % inhibition Apol 40': 55%
DRC-2, 40', concentration 20
  % inhibition Apol 40': 68%
DRC-2, 40', concentration 40
  % inhibition Apol 40': 75%
DRC-2, 40', concentration 80
  % inhibition Apol 40': 78%
DRC-2, 90', concentration 2.5
  % inhibition ApPOL 90': 4.51%
DRC-2, 90', concentration 5
  % inhibition ApPOL 90': 13%
DRC-2, 90', concentration 10
  % inhibition ApPOL 90': 54%
DRC-2, 90', concentration 20
  % inhibition ApPOL 90': 69%
DRC-2, 90', concentration 40
  % inhibition ApPOL 90': 77%
DRC-2, 90', concentration 80
  % inhibition ApPOL 90': 82%
DRC-2, 180', concentration 2.5
  % inhibition apPOL 180': -0.258%
DRC-2, 180', concentration 5
  % inhibition apPOL 180': 7%
DRC-2, 180', concentration 10
  % inhibition apPOL 180': 46%
DRC-2, 180', concentration 20
  % inhibition apPOL 180': 64%
DRC-2, 180', concentration 40
  % inhibition apPOL 180': 77%
DRC-2, 180', concentration 80
  % inhibition apPOL 180': 85%
Primary screen value of the library well, unit not given
  DNA Pol: 99

## Oc1cccc2ccc(/C=C/c3ccc4c(c3)OCO4)nc12 [KU0025984]
DRC-1, concentration 2.5
  % inhibition Apo pol 10': -0.2183%
DRC-1, concentration 5
  % inhibition Apo pol 10': 11.208%
DRC-1, concentration 10
  % inhibition Apo pol 10': 38.8453%
DRC-1, concentration 20
  % inhibition Apo pol 10': 79.6836%
DRC-1, concentration 40
  % inhibition Apo pol 10': 89.9069%
DRC-1, concentration 80
  % inhibition Apo pol 10': 93.1389%
DRC-1, 90', concentration 2.5
  % inhibition Apol 90': -7.534%
DRC-1, 90', concentration 5
  % inhibition Apol 90': 4.814%
DRC-1, 90', concentration 10
  % inhibition Apol 90': 24.6628%
DRC-1, 90', concentration 20
  % inhibition Apol 90': 70.7764%
DRC-1, 90', concentration 40
  % inhibition Apol 90': 83.7672%
DRC-1, 90', concentration 80
  % inhibition Apol 90': 87.8493%
DRC-1, 180', concentration 2.5
  % inhibition apPOL 180': -11.2426%
DRC-1, 180', concentration 5
  % inhibition apPOL 180': -1.027%
DRC-1, 180', concentration 10
  % inhibition apPOL 180': 13.0398%
DRC-1, 180', concentration 20
  % inhibition apPOL 180': 59.792%
DRC-1, 180', concentration 40
  % inhibition apPOL 180': 76.8882%
DRC-1, 180', concentration 80
  % inhibition apPOL 180': 82.4453%
DRC-2, 5', concentration 2.5 (unit not given)
  % inhibition Apo pol 5': 14%
DRC-2, 40', concentration 2.5 (unit not given)
  % inhibition Apol 40': 14%
DRC-2, 90', concentration 20 (unit not given)
  % inhibition ApPOL 90': 70%
DRC-2, 180', concentration 5 (unit not given)
  % inhibition apPOL 180': 12%
[1]
  % inhibition apPOL 180': 70%
DRC-2, 5', concentration 2.5
  % inhibition Apo pol 5': 14%
DRC-2, 5', concentration 5
  % inhibition Apo pol 5': 21%
DRC-2, 5', concentration 10
  % inhibition Apo pol 5': 38%
DRC-2, 5', concentration 20
  % inhibition Apo pol 5': 50%
DRC-2, 5', concentration 40
  % inhibition Apo pol 5': 52%
DRC-2, 5', concentration 80
  % inhibition Apo pol 5': 53%
DRC-2, 40', concentration 2.5
  % inhibition Apol 40': 14%
DRC-2, 40', concentration 5
  % inhibition Apol 40': 25%
DRC-2, 40', concentration 10
  % inhibition Apol 40': 47%
DRC-2, 40', concentration 20
  % inhibition Apol 40': 69%
DRC-2, 40', concentration 40
  % inhibition Apol 40': 71%
DRC-2, 40', concentration 80
  % inhibition Apol 40': 74%
DRC-2, 90', concentration 2.5
  % inhibition ApPOL 90': 12%
DRC-2, 90', concentration 2.5 (unit not given)
  % inhibition ApPOL 90': 12%
DRC-2, 90', concentration 5
  % inhibition ApPOL 90': 24%
DRC-2, 90', concentration 10
  % inhibition ApPOL 90': 45%
DRC-2, 90', concentration 20
  % inhibition ApPOL 90': 70%
DRC-2, 90', concentration 40
  % inhibition ApPOL 90': 72%
DRC-2, 90', concentration 80
  % inhibition ApPOL 90': 77%
DRC-2, 180', concentration 2.5
  % inhibition apPOL 180': -0.452%
DRC-2, 180', concentration 5
  % inhibition apPOL 180': 12%
DRC-2, 180', concentration 10
  % inhibition apPOL 180': 35%
DRC-2, 180', concentration 20
  % inhibition apPOL 180': 66%
DRC-2, 180', concentration 40
  % inhibition apPOL 180': 70%
DRC-2, 180', concentration 80
  % inhibition apPOL 180': 78%
[2]
  DNA Pol: 45
Primary screen value, head "DNA Pol", unit not given
  DNA Pol: 45

## N#CC(C#N)=C1SCN(c2cccc(Cl)c2)CS1 [Molecule 29]
Supplemental file 2, sheet IC50 nontoxic compounds, Pf-apPOL
  pIC50: 4.92

## O=C(Nc1cccc(Cl)c1)Nc1nnc(-c2ccncc2)s1 [KU0022348]
DRC-1, concentration 2.5
  % inhibition Apo pol 10': 12.66%
DRC-1, concentration 5
  % inhibition Apo pol 10': -6.2957%
DRC-1, concentration 10
  % inhibition Apo pol 10': 19.819%
DRC-1, concentration 20
  % inhibition Apo pol 10': 75.3838%
DRC-1, concentration 40
  % inhibition Apo pol 10': 88.0392%
DRC-1, concentration 80
  % inhibition Apo pol 10': 86.8157%
DRC-1, 90', concentration 2.5
  % inhibition Apol 90': 6.139%
DRC-1, 90', concentration 5
  % inhibition Apol 90': -8.679%
DRC-1, 90', concentration 10
  % inhibition Apol 90': 12.9186%
DRC-1, 90', concentration 20
  % inhibition Apol 90': 70.4338%
DRC-1, 90', concentration 40
  % inhibition Apol 90': 84.2961%
DRC-1, 90', concentration 80
  % inhibition Apol 90': 86.1912%
DRC-1, 180', concentration 2.5
  % inhibition apPOL 180': 0.3318%
DRC-1, 180', concentration 5
  % inhibition apPOL 180': -11.6465%
DRC-1, 180', concentration 10
  % inhibition apPOL 180': 5.454%
DRC-1, 180', concentration 20
  % inhibition apPOL 180': 60.8254%
DRC-1, 180', concentration 40
  % inhibition apPOL 180': 80.4807%
DRC-1, 180', concentration 80
  % inhibition apPOL 180': 84.4697%
DRC-2, 5', concentration 2.5
  % inhibition Apo pol 5': 16%
DRC-2, 5', concentration 5
  % inhibition Apo pol 5': 32%
DRC-2, 5', concentration 10
  % inhibition Apo pol 5': 46%
DRC-2, 5', concentration 20
  % inhibition Apo pol 5': 47%
DRC-2, 5', concentration 40
  % inhibition Apo pol 5': 48%
DRC-2, 5', concentration 80
  % inhibition Apo pol 5': 40%
DRC-2, 40', concentration 2.5
  % inhibition Apol 40': 18%
DRC-2, 40', concentration 5
  % inhibition Apol 40': 42%
DRC-2, 40', concentration 10
  % inhibition Apol 40': 64%
DRC-2, 40', concentration 20
  % inhibition Apol 40': 66%
DRC-2, 40', concentration 40
  % inhibition Apol 40': 71%
DRC-2, 40', concentration 80
  % inhibition Apol 40': 57%
DRC-2, 90', concentration 2.5
  % inhibition ApPOL 90': 16%
DRC-2, 90', concentration 5
  % inhibition ApPOL 90': 41%
DRC-2, 90', concentration 10
  % inhibition ApPOL 90': 65%
DRC-2, 90', concentration 20
  % inhibition ApPOL 90': 67%
DRC-2, 90', concentration 40
  % inhibition ApPOL 90': 73%
DRC-2, 90', concentration 80
  % inhibition ApPOL 90': 64%
DRC-2, 180', concentration 2.5
  % inhibition apPOL 180': 6%
DRC-2, 180', concentration 5
  % inhibition apPOL 180': 30%
DRC-2, 180', concentration 10
  % inhibition apPOL 180': 58%
DRC-2, 180', concentration 20
  % inhibition apPOL 180': 60%
DRC-2, 180', concentration 40
  % inhibition apPOL 180': 70%
DRC-2, 180', concentration 80
  % inhibition apPOL 180': 65%
conc. 2.5, 5', DRC-2
  % inhibition Apo pol 5': 16%
conc. 2.5, 90', DRC-2
  % inhibition ApPOL 90': 16%
conc. 10, 40', DRC-2
  % inhibition Apol 40': 64%
conc. 10, 90', DRC-2
  % inhibition ApPOL 90': 65%
conc. 80, 90', DRC-2
  % inhibition ApPOL 90': 64%
conc. 80, 180', DRC-2
  % inhibition apPOL 180': 65%
Primary screen value by plate and well
  DNA Pol: 61
[2]
  DNA Pol: 61
